Our source for the MEC values is patent US20170050961A1, “IMIDAZO[1,2-A]PYRIDINES AS SOLUBLE GUANYLATE CYCLASE STIMULATORS FOR THE TREATMENT OF CARDIOVASCULAR DISEASES” (BAYER PHARMA AKTIENGESELLSCHAFT, priority 2014, published 2017).

The target of this assay is T1, recombinant guanylate cyclase reporter cell line (Rattus norvegicus, UniProt P19686+P20595).
T1 construct: expressed in transfected cells
T1 sequence (P19686 1-690): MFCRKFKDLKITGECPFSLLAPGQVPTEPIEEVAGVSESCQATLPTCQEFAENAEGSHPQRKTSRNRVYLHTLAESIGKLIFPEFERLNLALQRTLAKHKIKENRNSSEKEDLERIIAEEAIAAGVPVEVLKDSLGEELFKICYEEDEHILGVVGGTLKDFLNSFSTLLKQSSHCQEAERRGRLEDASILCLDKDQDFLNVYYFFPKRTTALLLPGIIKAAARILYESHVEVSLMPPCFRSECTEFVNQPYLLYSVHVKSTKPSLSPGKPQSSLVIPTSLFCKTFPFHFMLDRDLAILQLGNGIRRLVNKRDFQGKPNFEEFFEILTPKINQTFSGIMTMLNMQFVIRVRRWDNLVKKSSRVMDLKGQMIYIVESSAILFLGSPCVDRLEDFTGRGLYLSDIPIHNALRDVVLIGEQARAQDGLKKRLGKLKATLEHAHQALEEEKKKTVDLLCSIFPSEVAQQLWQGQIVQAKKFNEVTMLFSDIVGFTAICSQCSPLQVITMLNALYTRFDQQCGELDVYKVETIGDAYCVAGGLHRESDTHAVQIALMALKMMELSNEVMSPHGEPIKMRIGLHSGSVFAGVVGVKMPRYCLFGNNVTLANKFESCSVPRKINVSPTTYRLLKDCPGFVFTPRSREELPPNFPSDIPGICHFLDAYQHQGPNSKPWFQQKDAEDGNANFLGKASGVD
T1 sequence (P20595 1-619): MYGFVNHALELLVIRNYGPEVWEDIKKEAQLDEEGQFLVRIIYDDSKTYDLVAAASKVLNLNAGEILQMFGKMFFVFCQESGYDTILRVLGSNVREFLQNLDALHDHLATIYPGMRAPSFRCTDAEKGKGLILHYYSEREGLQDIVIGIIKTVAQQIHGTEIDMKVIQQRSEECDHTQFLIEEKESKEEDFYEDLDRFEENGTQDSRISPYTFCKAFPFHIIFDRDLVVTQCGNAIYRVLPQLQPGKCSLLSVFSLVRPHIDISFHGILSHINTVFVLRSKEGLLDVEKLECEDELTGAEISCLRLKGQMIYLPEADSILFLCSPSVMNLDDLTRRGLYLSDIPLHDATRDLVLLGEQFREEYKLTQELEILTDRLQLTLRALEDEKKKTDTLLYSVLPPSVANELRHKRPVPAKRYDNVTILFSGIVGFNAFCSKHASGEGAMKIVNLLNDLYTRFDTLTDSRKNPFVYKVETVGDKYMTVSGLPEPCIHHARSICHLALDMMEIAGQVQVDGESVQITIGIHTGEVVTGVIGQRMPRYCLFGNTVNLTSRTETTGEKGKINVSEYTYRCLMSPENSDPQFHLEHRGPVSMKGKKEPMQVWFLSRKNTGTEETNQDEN
The experiment in a line: Effect on a recombinant guanylate cyclase reporter cell line. It counts as cell-based. The following applies: MEC=minimum effective concentration; in some cases as mean values for individual determinations. On the procedure: B-2. Effect on a Recombinant Guanylate Cyclase Reporter Cell Line
The cellular activity of the compounds of the invention is determined using a recombinant guanylate cyclase reporter cell line, as described in F. Wunder et al., Anal Biochem. 339, 104-112 (2005).
Representative MEC values (MEC=minimum effective concentration) for the compounds of the invention are shown in the table below (in some cases as mean values for individual determinations): […]
Regarding `Cc1cc(OCc2c(F)cccc2F)c2nc(C(C)C)c(C(=O)NCC(C)(N)CCC(F)(F)F)n2c1` (single isomer, unassigned; enantiomer b) [Example 18, ent-N-(2-Amino-5,5,5-trifluoro-2-methylpentyl)-8-[(2,6-difluorobenzyl)oxy]-2-isopropyl-6-methylimidazo[1,2-a]pyridine-3-carboxamide (enantiomer B)], the MEC stood at 2.0 µM.

With `Cc1cc(OCc2c(F)cccc2F)c2nc(Cl)c(C(=O)NCC(C)(N)CCC(F)(F)F)n2c1` (single isomer, unassigned; enantiomer b) [Example 19, ent-N-(2-Amino-5,5,5-trifluoro-2-methylpentyl)-2-chloro-8-[(2,6-difluorobenzyl)oxy]-6-methylimidazo[1,2-a]pyridine-3-carboxamide (enantiomer B)], the MEC was determined as 0.07 µM.

As to `CCC(C)(N)CNC(=O)c1c(Cl)nc2c(OCc3c(F)cccc3F)cc(C)cn12` (single isomer, unassigned; enantiomer b) [Example 22, ent-N-(2-Amino-2-methylbutyl)-2-chloro-8-[(2,6-difluorobenzyl)oxy]-6-methylimidazo[1,2-a]pyridine-3-carboxamide (enantiomer B)], the MEC was 0.1 µM.

As to `CCCC(C)(N)CNC(=O)c1c(Cl)nc2c(OCc3c(F)cccc3F)cc(C)cn12` (single isomer, unassigned; enantiomer b) [Example 25, ent-N-(2-Amino-2-methylpentyl)-2-chloro-8-[(2,6-difluorobenzyl)oxy]-6-methylimidazo[1,2-a]pyridine-3-carboxamide (enantiomer B)], the MEC was 0.3 µM.

For `CCC(C)(N)CNC(=O)c1c(OC)nc2c(OCc3c(F)cccc3F)cc(C)cn12` (single isomer, unassigned; enantiomer b) [Example 26, ent-N-(2-Amino-2-methylbutyl)-8-[(2,6-difluorobenzyl)oxy]-2-methoxy-6-methylimidazo[1,2-a]pyridine-3-carboxamide (enantiomer B)], the MEC was determined as 2.0 µM.

In the case of `COc1nc2c(OCc3c(F)cccc3F)cc(C)cn2c1C(=O)NCC(C)(N)CCC(F)(F)F` (single isomer, unassigned; enantiomer b) [Example 27, ent-N-(2-Amino-5,5,5-trifluoro-2-methylpentyl)-8-[(2,6-difluorobenzyl)oxy]-2-methoxy-6-methylimidazo[1,2-a]pyridine-3-carboxamide (enantiomer B)], the MEC stood at 3.0 µM.

Consider `Cc1cc(OCc2c(F)cccc2F)c2nc(Cl)c(C(=O)NC(CCC(F)(F)C(F)(F)F)C(C)(C)O)n2c1` (single isomer, unassigned; ent-2) [Example 28, ent-2-Chloro-8-[(2,6-difluorobenzyl)oxy]-6-methyl-N-(6,6,7,7,7-pentafluoro-2-hydroxy-2-methylheptan-3-yl)imidazo[1,2-a]pyridine-3-carboxamide (enantiomer A)], for which the MEC stood at 0.03 µM.

With `CCCC[C@H](CO)NC(=O)c1c(OC)nc2c(OCc3c(F)cccc3F)cc(C)cn12` [Example 29, 8-[(2,6-Difluorobenzyl)oxy]-N-[(2R)-1-hydroxyhexan-2-yl]-2-methoxy-6-methylmidazo[1,2-a]pyridine-3-carboxamide], the MEC amounted to 0.55 µM.
